Several values for one entry are separate records, joined by “and”; a condition that tells them apart may be missing. Identical values can stand only once. Counter-ions that a name gives are not always drawn. Like-named read-outs stand apart in the source and are kept apart here.
Legend:
[1] = In-vitro free radical scavenging activity using DPPH free radical; conditions: 30° C., 30 minutes, 515 nm
Source text: Free Radical Scavenging Activity:
To determine the in-vitro free radical scavenging activity of compounds of general formula-I on 2,2,-diphenyl-1-picrylhydrazyl (DPPH)radical (Ref: W. Brand-Williams, M. E. Cuvelier, C. Berset “Use of a free radical method to evaluate antioxidant activity”, Lebensm.- Wiss.u.Technol.,1995,28,Nr.1:25-30).
To evaluate the free radical scavenging activity of compounds they are allowed to react with stable radical DPPH*. In its radical form, DPPH* absorbed at the characteristic wave length of 515 nm, but upon reduction by an antioxidant or radical scavenger (AH), the absorption disappears.
10^−4M solution of DPPH* was prepared in methanol.
Various concentrations (10 mM, 1 mM, 0.5 mM, 0.25 mM and 0.125 mM) of drug solutions were prepared in methanol.
900 μl of DPPH radical solution was added to an eppendorf tube. To it was added 100 μl of methanol.
900 μl of DPPH radical solution was added to an eppendorf tube. To it was added 100 μl of various concentrations of drug solutions in methanol.
The absorbance of control and test samples was recorded after incubation at 30° C. for 30 minutes, at 515 nm taking methanol as blank.
The percent antioxidant activity was calculated according to the formula:
% Antioxidant activity=100−[O.D of test sample/O.D of control*100]

[2] = test system: STZ induced diabetic rats; experiment: In vivo oral glucose tolerance study in nSTZ induced diabetic rats, i.v. drug; conditions: 8 mg/ml/kg i.v.
Method: In Vivo Oral Glucose Tolerance Studies
The anti-hyperglycemic effect of compound no. 95 (8 mg/ml/kg, i.v) after an oral glucose load of 1 gm/kg was studied in STZ induced diabetic rats (modified method of Balkan et al 1999).
Animals: Male STZ induced diabetic rats aged 10-12 weeks and weighing between 200-250 gm were used for the study. These rats were treated with streptozotocin administered intraperitoneally on the day of birth at a dose of 90 mg/kg. They were maintained under standard conditions till the age of 10-12 weeks when they were used for the study.
Materials: Glucose solution (1 gm/4 ml of saline), Diethyl ether compound no. 95 (8 mg/ml/kg), vehicle (1 ml/kg), Heparinized saline (100 IU/ml), glucometer and strips
Method: Animals were divided into two groups
Group I: 8 hours fasted rats were treated with compound no. 95 vehicle (1 ml/kg, i.v.) 5 min before administration of glucose load.
Group II: 8 hours fasted rats were treated with compound no. 95 (8 mg/ml/kg, i.v) 5 min before administration of glucose load.
In both groups, blood samples were taken before administration of vehicle/compound no. 95 and glucose load for blood glucose estimation. Blood glucose level before administration of compound no. 95 or its vehicle was considered as −5 min reading. Blood glucose level before administration of glucose was considered as 0 min reading.
After 10, 20, 30, 45, 60, 75, 90, 120, 150 and 180 min of glucose administration, blood glucose level was estimated by the glucose oxidase method using a LifeScan glucometer (Ca, USA). Blood glucose level at various time points was subtracted from the basal (0 min) reading. This was done to avoid changes in AUC because of variation in basal glucose level. The glucose excursion at various time points was plotted against time and the AUC was calculated.
The activity of compound no. 95 was expressed as % reduction in AUC as compared with that of its vehicle.

nOSTZ diabetic rats = experiment: Oral glucose tolerance test in neonatal streptozotocin-induced (nOSTZ) diabetic rats, oral drug; format: in vivo, Wistar rats; conditions: 22 mg/kg oral; for percent change in blood glucose from basal glucose level / peak glucose levels (% from basal level): glucose load 1 g/kg; for peak glucose levels (% from basal level): significantly lower than vehicle (157.07±14.17%); for glucose tolerance (in words): nOSTZ rats
Source text: Effect of Compound no. 140 and Compound no. 142 on Oral Glucose Tolerance in Neonatel Streptozotocin-Induced (nO STZ) Diabetic Rats
Principle of Glucose Estimation by Glucometer (One Touch, Lifescan, USA)
Glucose and oxygen react in the presence of glucose oxidase yielding gluconic acid and hydrogen peroxide. Hydrogen peroxide subsequently oxidizes the dyes in a reaction mediated by Peroxidase producing a blue colored form of the dyes (Marks and Dawson, 1965). The intensity of the blue color is proportional to the glucose concentration in the sample.
Wistar rats were made type 2 diabetic by injecting streptozotocin (STZ) at the dose of 90 mg/kg intraperitoneally on the day of birth (nOSTZ) to male pups (Portha et al, 2001). Animals showing overnight fasted blood glucose levels between 7-10 mM at the age of 10-12 weeks were used for the study. On the day of the experiment, animals were fasted overnight with free access to water.
Oral Glucose Tolerance Test (OGTT) (Pospisilik et al, 2002)
External jugular vein of overnight fasted nOSTZ rats was cannulated using polyethylene cannula with heparinized (100 IU/ml) saline under ether anesthesia and exteriorized at the back of the neck. After the animal was recovered from the anesthesia, blood sample was drawn as marked as ‘−5 min’ sample and drug formulation (in 0.5% sodium caboxymethyl cellulose, Na-CMC) was administered orally at the volume of 1 ml/kg body weight.
5 min after drug administration, blood sample was drawn as ‘0 min’ sample and glucose load at the dose of 1 g/kg body weight was administered orally. Blood samples were drawn subsequently at 5, 10, 15, 20, 30, 45, 60, 75, 90, 120, 180, 240 and 360 min time interval. Blood glucose is measured using glucometer.
Animals were divided into three groups: 1. Vehicle (0.5% Na-CMC) treated, 2. Compound no. 140 treated (22 mg/kg) and 3. Compound no. 142 treated (22 mg/kg).
Change in blood glucose at various time points was measured as percent increase or decrease from basal glucose level. Area under the curve (AUC) for glucose was calculated using WinNonlin software.

Porcine DPP-IV = biological target: T1, Porcine DPP-IV (Sus scrofa, UniProt P22411); experiment: Assay of DPP-IV enzyme inhibitory activity (spectrophotometric, Gly-Pro-pNA cleavage); format: biochemical; conditions: Porcine DPP-IV, Gly-Pro-pNA substrate, 30° C., mean ± SD of three experiments except compound Nos. 133 & 139, read-out: IC50 (μM) Mean ± SD, inhibitory activity on DPP-IV enzyme activity
T1 construct: purchased Sigma-Aldrich Germany
T1 sequence (P22411 whole entry): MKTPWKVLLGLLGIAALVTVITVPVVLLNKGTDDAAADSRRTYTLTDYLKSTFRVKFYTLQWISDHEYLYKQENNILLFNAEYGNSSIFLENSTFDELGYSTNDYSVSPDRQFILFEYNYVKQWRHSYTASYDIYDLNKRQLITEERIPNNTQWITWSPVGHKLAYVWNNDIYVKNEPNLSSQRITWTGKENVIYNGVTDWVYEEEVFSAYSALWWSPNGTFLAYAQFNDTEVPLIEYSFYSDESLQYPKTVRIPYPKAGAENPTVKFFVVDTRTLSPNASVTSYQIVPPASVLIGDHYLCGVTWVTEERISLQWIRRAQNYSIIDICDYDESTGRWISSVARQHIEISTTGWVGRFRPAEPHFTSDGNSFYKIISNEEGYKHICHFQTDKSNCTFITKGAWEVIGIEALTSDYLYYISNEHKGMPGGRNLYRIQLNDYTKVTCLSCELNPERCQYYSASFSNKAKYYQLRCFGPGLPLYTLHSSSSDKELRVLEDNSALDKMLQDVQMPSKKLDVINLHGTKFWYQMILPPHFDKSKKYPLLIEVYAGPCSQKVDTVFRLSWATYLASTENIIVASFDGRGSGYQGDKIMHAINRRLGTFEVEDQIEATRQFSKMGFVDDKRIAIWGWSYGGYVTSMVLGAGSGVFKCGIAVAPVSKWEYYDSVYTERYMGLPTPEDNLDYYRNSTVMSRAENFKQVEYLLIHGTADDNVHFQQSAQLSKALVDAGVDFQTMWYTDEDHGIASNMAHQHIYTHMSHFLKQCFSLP

SMILES | melting point | percent change in blood glucose from basal glucose level (nOSTZ diabetic rats; 0 min) [%] | peak glucose levels (% from basal level) (nOSTZ diabetic rats) [%] | glucose tolerance (in words) (nOSTZ diabetic rats) | percent change in blood glucose from basal glucose level (nOSTZ diabetic rats; 5 min) [%] | percent change in blood glucose from basal glucose level (nOSTZ diabetic rats; 10 min) [%] | percent change in blood glucose from basal glucose level (nOSTZ diabetic rats; 15 min) [%] | percent change in blood glucose from basal glucose level (nOSTZ diabetic rats; 20 min) [%] | percent change in blood glucose from basal glucose level (nOSTZ diabetic rats; 30 min) [%] | percent change in blood glucose from basal glucose level (nOSTZ diabetic rats; 45 min) [%] | percent change in blood glucose from basal glucose level (nOSTZ diabetic rats; 60 min) [%] | percent change in blood glucose from basal glucose level (nOSTZ diabetic rats; 90 min) [%] | percent change in blood glucose from basal glucose level (nOSTZ diabetic rats; 120 min) [%] | percent change in blood glucose from basal glucose level (nOSTZ diabetic rats; 180 min) [%] | percent change in blood glucose from basal glucose level (nOSTZ diabetic rats; 240 min) [%] | percent change in blood glucose from basal glucose level (nOSTZ diabetic rats; 360 min) [%] | IC50 (Porcine DPP-IV) [µM] | other results
Cl.N#CC1CSCN1C(=O)N(N)C1CCCCC1 (centres unmarked) | 166 to 168 °C (dec.) |  |  |  |  |  |  |  |  |  |  |  |  |  |  |  |  | 
N#CC1CSCN1C(=O)CN(N)C1CCN(CC(=O)Nc2ccc(Cl)cn2)CC1 (centres unmarked) [Compound No. 95] |  |  |  |  |  |  |  |  |  |  |  |  |  |  |  |  |  | % Activity (antioxidant, DPPH) ([1]; Concentration 12.5 μM, 12.5 µM): 22.06%; % Activity (antioxidant, DPPH) ([1]; Concentration 25 μM, 25 µM): 36.87%; % Activity (antioxidant, DPPH) ([1]; Concentration 50 μM, 50 µM): 44.81%; % Activity (antioxidant, DPPH) ([1]; Concentration 100 μM, 100 µM): 65.52%; Glucose excursions after a 1 gm/kg glucose load ([2]; 0 min): 0.0; AUC values mM * min of glucose excursion ([2]; 5 min before 1 gm/kg glucose load, Mean ± SD, P < 0.05 vs vehicle): 413.3±134.6 mM * min and 413.3 ± 134.6a mM * min; effect on hyperglycemia (in words) ([2]; nSTZ induced diabetic rats): controls hyperglycemia and brings the glucose levels to normoglycemic range; Glucose excursions after a 1 gm/kg glucose load ([2]; 10 min): 3.9; Glucose excursions after a 1 gm/kg glucose load ([2]; 20 min): 5.9; Glucose excursions after a 1 gm/kg glucose load ([2]; 30 min): 7.8; Glucose excursions after a 1 gm/kg glucose load ([2]; 45 min): 6.2; Glucose excursions after a 1 gm/kg glucose load ([2]; 60 min): 4.1; Glucose excursions after a 1 gm/kg glucose load ([2]; 75 min): 2.7; Glucose excursions after a 1 gm/kg glucose load ([2]; 90 min): 0.5; Glucose excursions after a 1 gm/kg glucose load ([2]; 120 min): −2.8; Glucose excursions after a 1 gm/kg glucose load ([2]; 150 min): −4.1; Glucose excursions after a 1 gm/kg glucose load ([2]; 180 min): −3.9
Cl.Cl.Cl.N#Cc1ccc(NC(=O)CN2CCC(N(N)CC(=O)N3CSCC3C#N)CC2)nc1 (centres unmarked) [compound 140, 3-[1-oxo-2-(1-(1-(2-oxo-2-(5-cyanopyridin-2-yl)aminoethyl)piperidin-4-yl))hydrazino]ethyl-4-cyano thiazolidine, trihydrochloride] |  | 0.0 ± 0.0 | 99.19±17.87 | improved glucose tolerance | 21.97 ± 1.14 | 49.11 ± 11.7 | 64.67 ± 10.17 | 69.62 ± 12.73 | 90.29 ± 22.93 | 99.19 ± 17.87 | 82.76 ± 16.22 | 34.3 ± 20.32 | −21.87 ± 25.68 | −45.71 ± 18.48 | −48.6 ± 13.58 | −49.76 ± 10.31 |  | IC50 (Porcine DPP-IV; trihydrochloride): 0.13 ± 0.03 µM
CC(C)N(N)C(=O)N1CSCC1C#N.Cl (centres unmarked) | 148 to 150 °C (dec.) |  |  |  |  |  |  |  |  |  |  |  |  |  |  |  |  | 
N#CC1CSCN1C(=O)CN(N)C1CCN(CC(=O)Nc2ccc(S(N)(=O)=O)cc2)CC1 (centres unmarked) [compound 142, 3-[1-oxo-2-(1-(1-(2-oxo-2-(4-aminosulphonylphenyl)aminoethyl)piperidin-4-yl))hydrazino]ethyl-4-cyano thiazolidine, dihydrochloride] |  | 0.0 ± 0.0 | 87.25±15.61 | improved glucose tolerance | 9.79 ± 4.13 | 29.41 ± 3.4 | 46.51 ± 5.23 | 56.51 ± 4.33 | 77.93 ± 12.12 | 87.25 ± 15.61 | 67.33 ± 11.49 | 67.45 ± 9.8 | 31.4 ± 8.51 | −48.05 ± 5.75 | −58.87 ± 6.10 | −63.57 ± 4.77 | 0.07 ± 0.01 | 
CCNN(CC(=O)N1CSCC1C#N)C1CCC(NS(C)(=O)=O)CC1 (centres unmarked) [Compound No. 97, 3-[1-oxo-2-[1-(1-(methanesulphonyl)aminocyclohexan-4-yl)-2-ethyl]hydrazino]ethyl-4-cyanothiazolidine] |  |  |  |  |  |  |  |  |  |  |  |  |  |  |  |  | 1.03 ± 0.07 | % Activity (antioxidant, DPPH) ([1]; Concentration 12.5 μM): 18.06%; % Activity (antioxidant, DPPH) ([1]; Concentration 25 μM): 38.30%; % Activity (antioxidant, DPPH) ([1]; Concentration 50 μM): 66.99%; % Activity (antioxidant, DPPH) ([1]; Concentration 100 μM): 91.67%

From patent US20040106802A1, “Novel compounds and therapeutic uses thereof” (TORRENT PHARMACEUTICALS LTD., priority 2002, published 2004)
